Columns and labels:
BceF kinase domain [1] = target: T1, BceF kinase domain (Burkholderia cepacia, UniProt Q0GYW2); assay: X-ray crystal structure, […] Å; type: binding; details: endogenous ADP co-purified from E. coli; active site; crystals pH 5.5
T1 construct: cytoplasmic kinase domain, residues 471-741; synthetic codon-optimised gene, N-terminal His6-TEV; E. coli BL21(DE3); partly phosphorylated C-terminal tyrosines

BceF kinase domain [2] = target: T1, BceF kinase domain; assay: microscale thermophoresis, NT-647 labelled protein; type: binding
[3] = target: the molecule itself; assay: SEC-MALS; Superdex 75 10/300 column, miniDAWN TREOS and Optilab T-rEX; SEC analysis at pH 7.5; single species of 59.1 kDa against a calculated monomer of 29.4 kDa

**Q.** Which “X-ray crystal structure, 1.85 Å” value (BceF kinase domain [1]) does the source give for `Nc1ncnc2c1ncn2[C@@H]1O[C@H](COP(=O)(O)OP(=O)(O)O)[C@@H](O)[C@H]1O` [ADP] here?
**A.** The structure revealed an adenosine diphosphate (ADP) molecule bound at the active site

**Q.** For `Nc1ncnc2c1ncn2[C@@H]1O[C@H](COP(=O)(O)OP(=O)(O)NP(=O)(O)O)[C@@H](O)[C@H]1O` [AMP-PNP], which Kd (BceF kinase domain [2]) is on record?
**A.** 1.64 ± 0.22 mM

B1: BceF kinase domain (residues 471-741) from Burkholderia cepacia (domain or fragment)
chain: RRNMFQGIEDPDRIERAFNLPLYGLVPQSAEQVKLDAQAEKSGSRTRPILASLRPKDLSVESLRSLRTAMQFAMMDAKNRVIVLTGPTPGIGKSFLTVNLAVLLAHSGKRVLLIDADMRRGLLDRYFGLTSQPGLSELLSDQSALEDAVRETPVQGLSFISAGTRPPNPSELLMSTRLPQYLEGLGKRYDVVLIDSPPVLAVTDATIIGRMAGSTFLVLRSGMHTEGEIADAIKRLRTAGVDLEGGIFNGVPPKARGYGRGYAAVHEYLSA
modifications: partly phosphotyrosine in the C-terminal tail 725-741 (MS/MS: 28% non-phosphorylated, 68% monophosphorylated mostly at the third tyrosine, position 14 of the peptide)
notes: His6 tag and TEV site at the N-terminus; cleaved with TEV in the preparation for crystallisation; also called isolated BceF kinase domain; BceF tyrosine kinase domain; source: E. coli BL21(DE3), purified (HisTrap, TEV cleavage, second HisTrap, SEC Superdex 200); not shown: His6, N-terminal, cleaved
**Q.** For B1, which “stoichiometry N” value [3] is on record?
**A.** 2
